Measurements: patent US20230066946A1, “1,5-DIPHENYLPYRAZOLYL-3-OXYALKYL ACIDS AND 1-PHENYL-5-THIENYLPYRAZOLYL-3-OXYALKYL ACIDS AND THE USE THEREOF FOR CONTROL OF UNWANTED PLANT GROWTH” (Bayer Aktiengesellschaft, priority 2019, published 2023)

How the values were obtained:
ALOMY [1] = assay: Pre-emergence herbicidal action against ALOMY; type: in vivo, Alopecurus myosuroides; settings: scored visually after about 3 weeks vs untreated controls, 100% = plants have died, 0% = like control plants
Excerpt: (§1) Seeds of mono- and dicotyledonous weed plants are placed in plastic pots in sandy loam soil (doubly sown with one species each of mono- or dicotyledonous weed plants per pot) and covered with soil. The compounds of the invention, formulated in the form of wettable powders (WP) or as emulsion concentrates (EC), are then applied onto the surface of the covering soil as aqueous suspension or emulsion with addition of 0.5% additive at a water application rate equivalent to 600 litres per hectare. After the treatment, the pots are placed in a greenhouse and kept under good growth conditions for the trial plants. After about 3 weeks, the effect of the preparations is scored visually in comparison with untreated controls as percentages. For example, 100% activity=the plants have died, 0% activity=like control plants. [table] Tables 4.1-4.15 below show the effects of selected compounds of the general formula (I) according to Tables 1 to 3 on various harmful plants at an application rate corresponding to 1280 or 320 g/ha, which have been obtained by the aforementioned experimental method.

SETVI [2] = assay: Pre-emergence herbicidal action against SETVI; type: in vivo, Setaria viridis; settings: 1280 g/ha, scored visually after about 3 weeks vs untreated controls
Method in brief: (§2)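 Pre-emergence, sandy loam, pots doubly sown. WP/EC formulations + 0.5% additive, 600 L/ha water, sprayed on soil surface; 1280 or 320 g/ha. Greenhouse ~3 wk; visual % effect vs untreated.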

AMARE [3] = assay: Pre-emergence herbicidal action against AMARE; type: in vivo, Amaranthus retroflexus; settings: scored visually after about 3 weeks vs untreated controls; for Pre-emergence action at 320 g/ha against AMARE in %: 100% = plants have died, 0% = like control plants; for Pre-emergence action against AMARE in %: 1280 g/ha
Method in brief: as §2

MATIN [4] = assay: Pre-emergence herbicidal action against MATIN; type: in vivo, Matricaria inodora; settings: 1280 g/ha, scored visually after about 3 weeks vs untreated controls
Method in brief: as §2

PHBPU [5] = assay: Pre-emergence herbicidal action against PHBPU; type: in vivo, Pharbitis purpurea; settings: 1280 g/ha, scored visually after about 3 weeks vs untreated controls
Excerpt: as §1

POLCO [6] = assay: Pre-emergence herbicidal action against POLCO; type: in vivo, Polygonum convolvulus; settings: 320 g/ha, scored visually after about 3 weeks vs untreated controls
Method in brief: as §2

STEME [7] = assay: Pre-emergence herbicidal action against STEME; type: in vivo, Stellaria media; settings: scored visually after about 3 weeks vs untreated controls
Method in brief: as §2

VIOTR [8] = assay: Pre-emergence herbicidal action against VIOTR; type: in vivo, Viola tricolor; settings: 1280 g/ha, scored visually after about 3 weeks vs untreated controls
Method in brief: as §2

ALOMY [9] = assay: Post-emergence herbicidal action against ALOMY; type: in vivo, Alopecurus myosuroides; settings: 1280 g/ha, post-emergence at one-leaf stage, rated visually after about 3 weeks vs untreated controls
Method in brief: (§3)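 Weeds grown in sandy loam under greenhouse conditions were sprayed at the one-leaf stage, 2-3 weeks after sowing. Compounds were applied as WP or EC formulations in water with 0.5% additive at 600 L/ha, at 1280 or 320 g/ha. Activity was rated visually about 3 weeks later against untreated controls (0-100%).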

ECHCG [10] = assay: Post-emergence herbicidal action against ECHCG; type: in vivo, Echinochloa crus-galli; settings: 1280 g/ha, post-emergence at one-leaf stage, rated visually after about 3 weeks vs untreated controls
Method in brief: as §3

SETVI [11] = assay: Post-emergence herbicidal action against SETVI; type: in vivo, Setaria viridis; settings: 1280 g/ha, post-emergence at one-leaf stage, rated visually after about 3 weeks vs untreated controls
Method in brief: as §3

AMARE [12] = assay: Post-emergence herbicidal action against AMARE; type: in vivo, Amaranthus retroflexus; settings: visual rating about 3 weeks after treatment
Method in brief: as §3

MATIN [13] = assay: Post-emergence herbicidal action against MATIN; type: in vivo, Matricaria inodora; settings: visual rating about 3 weeks after treatment
Method in brief: as §3

STEME [14] = assay: Post-emergence herbicidal action against STEME; type: in vivo, Stellaria media; settings: visual rating about 3 weeks after treatment
Method in brief: as §3

harmful plants [15] = assay: Pre-emergence herbicidal action, summary of Tables 4.1-4.15; type: in vivo; settings: result in words
Method in brief: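 Percent herbicidal action (100% = plants dead, 0% = like controls) was assessed visually about 3 weeks after treatment. Application rates of 1280 or 320 g/ha were applied to the covering soil of freshly sown sandy-loam pots, in 600 l/ha water with 0.5% additive, before emergence.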

harmful plants [16] = assay: Post-emergence herbicidal action, summary of Tables 5.1-5.16; type: in vivo; settings: result in words
Protocol: Seeds of mono- and dicotyledonous weed plants are placed in plastic pots in sandy loam soil (twin sowing with one species each of mono- or dicotyledonous weed plants per pot), covered with soil and cultivated in a greenhouse under controlled growth conditions. 2 to 3 weeks after sowing, the test plants are treated at the one-leaf stage. The compounds of the invention, formulated in the form of wettable powders (WP) or as emulsion concentrates (EC), are applied to the green parts of the plants as aqueous suspension or emulsion with addition of 0.5% additive at a water application rate equivalent to 600 litres per hectare. After the test plants have been kept in the greenhouse under optimum growth conditions for about 3 weeks, the activity of the preparations is rated visually in comparison to untreated controls. For example, 100% activity=the plants have died, 0% activity=like control plants. Tables 5.1-5.16 below show the effects of selected compounds of the general formula (I) according to Tables 1 to 3 on various harmful plants at an application rate corresponding to 1280 or 320 g/ha, which have been obtained by the aforementioned experimental method. As the results from Tables 5.1-5.16 show, compounds of the invention have good herbicidal post-emergence efficacy against a broad spectrum of weed grasses and weeds. […] For example, compounds Nos. I-002, I-006, I-022, I-056 and I-072 applied by the post-emergence method have very good herbicidal action (80% to 100% herbicidal action) against harmful plants such as Alopecurus myosuroides, Amaranthus retroflexus, Matricaria inodora, Setaria viridis, Pharbitis purpurea and Stellaria media at an application rate of 1.28 kg of active substance or less per hectare.

HORMU [17] = assay: Pre-emergence herbicidal action against HORMU; type: in vivo, Hordeum murinum; settings: 320 g/ha, scored visually after about 3 weeks vs untreated controls
Excerpt: as §1

PHBPU [18] = assay: Post-emergence herbicidal action against PHBPU; type: in vivo, Pharbitis purpurea; settings: 320 g/ha, visual rating about 3 weeks after treatment
Method in brief: as §3

POLCO [19] = assay: Post-emergence herbicidal action against POLCO; type: in vivo, Polygonum convolvulus; settings: 320 g/ha, visual rating about 3 weeks after treatment
Method in brief: as §3

VIOTR [20] = assay: Post-emergence herbicidal action against VIOTR; type: in vivo, Viola tricolor; settings: 320 g/ha, visual rating about 3 weeks after treatment
Method in brief: as §3

HORMU [21] = assay: Post-emergence herbicidal action against HORMU; type: in vivo, Hordeum murinum; settings: 320 g/ha, visual rating about 3 weeks after treatment
Protocol: [table] Seeds of mono- and dicotyledonous weed plants are placed in plastic pots in sandy loam soil (twin sowing with one species each of mono- or dicotyledonous weed plants per pot), covered with soil and cultivated in a greenhouse under controlled growth conditions. 2 to 3 weeks after sowing, the test plants are treated at the one-leaf stage. The compounds of the invention, formulated in the form of wettable powders (WP) or as emulsion concentrates (EC), are applied to the green parts of the plants as aqueous suspension or emulsion with addition of 0.5% additive at a water application rate equivalent to 600 litres per hectare. After the test plants have been kept in the greenhouse under optimum growth conditions for about 3 weeks, the activity of the preparations is rated visually in comparison to untreated controls. For example, 100% activity=the plants have died, 0% activity=like control plants. Tables 5.1-5.16 below show the effects of selected compounds of the general formula (I) according to Tables 1 to 3 on various harmful plants at an application rate corresponding to 1280 or 320 g/ha, which have been obtained by the aforementioned experimental method.

ECHCG [22] = assay: Pre-emergence herbicidal action against ECHCG; type: in vivo, Echinochloa crus-galli; settings: scored visually after about 3 weeks vs untreated controls, 100% = plants have died, 0% = like control plants
Method in brief: as §2

VERPE [23] = assay: Pre-emergence herbicidal action against VERPE; type: in vivo, Veronica persica; settings: 320 g/ha, scored visually after about 3 weeks vs untreated controls
Method in brief: as §2

VERPE [24] = assay: Post-emergence herbicidal action against VERPE; type: in vivo, Veronica persica; settings: 320 g/ha, visual rating about 3 weeks after treatment
Method in brief: as §3

| Compound | Pre-emergence action against SETVI in % (SETVI [2]) | Pre-emergence action at 320 g/ha against AMARE in % (AMARE [3]) | Pre-emergence action against AMARE in % (AMARE [3]) | Pre-emergence action against POLCO in % (POLCO [6]) | Pre-emergence action against STEME in % (STEME [7]; 1280 g/ha) | herbicidal efficacy against harmful plants in the case of pre-emergence treatment (harmful plants [15]) | Pre-emergence action against STEME in % (STEME [7]; 320 g/ha) | Pre-emergence action against HORMU in % (HORMU [17]) | Post-emergence action against MATIN in % (MATIN [13]; 320 g/ha) | Post-emergence action against POLCO in % (POLCO [19]) | Post-emergence action against STEME in % (STEME [14]; 320 g/ha) | Post-emergence action against HORMU in % (HORMU [21]) | further results |
| --- | --- | --- | --- | --- | --- | --- | --- | --- | --- | --- | --- | --- | --- |
| CCOC(=O)COc1nn(-c2ccc(F)cc2)c(-c2ccccc2)c1Br [I-072] | 80% | 80% | 90% | 90% | 90% | good herbicidal efficacy |  |  |  |  |  |  | Pre-emergence action at 1280 g/ha against ALOMY in % (ALOMY [1]): 80%; Pre-emergence action against MATIN in % (MATIN [4]): 80%; Pre-emergence action against PHBPU in % (PHBPU [5]): 90%; Pre-emergence action against VIOTR in % (VIOTR [8]): 80%; Post-emergence action against ALOMY in % (ALOMY [9]): 80%; Post-emergence action against ECHCG in % (ECHCG [10]): 80%; Post-emergence action against SETVI in % (SETVI [11]): 80%; Post-emergence action against AMARE in % (AMARE [12]; 1280 g/ha): 80%; Post-emergence action against MATIN in % (MATIN [13]; 1280 g/ha): 80%; Post-emergence action against STEME in % (STEME [14]; 1280 g/ha): 80%; herbicidal efficacy against harmful plants when applied post-emergence (harmful plants [16]): very good herbicidal efficacy |
| COC(=O)C(C)Oc1nn(-c2ccccc2)c(-c2ccc(F)cc2)c1C#N (stereo not shown) [I-064] |  | 100% |  | 100% |  |  | 90% | 90% | 80% | 80% | 90% | 90% | Post-emergence action against PHBPU in % (PHBPU [18]): 80%; Post-emergence action against VIOTR in % (VIOTR [20]): 100% |
| C=CCNC(=O)COc1nn(-c2c(F)cccc2F)c(-c2ccc(F)c(F)c2)c1[N+](=O)[O-] [III-069] | 100% | 100% | 90% | 90% | 90% | good herbicidal efficacy | 100% | 90% | 80% | 80% | 90% | 80% | Pre-emergence action at 1280 g/ha against ECHCG in % (ECHCG [22]): 100%; Pre-emergence action against VERPE in % (VERPE [23]): 100%; Post-emergence action against AMARE in % (AMARE [12]; 320 g/ha): 90%; Post-emergence action against VERPE in % (VERPE [24]): 90% |
